What all share (type): cell-based
For one assay, the system named is IL-1β. The assay can be described thus: cytokine expression by RT-PCR in PHA-stimulated lymphocytes: IL-1β. Conditions: PHA + 12.5 μM, healthy cats (no PHA) = 1. Here is the method:
(§1) Lymphocytes are obtained from the blood of healthy cats and cats with IBD as described in Example 1 and then treated with DHA or EPA also as described in Example 1. Ribonucleic acid (RNA) is extracted from all samples, and real time polymerase chain reaction (RT-PCR) is performed to examine the changes in the level of expression of the following cytokines: interleukins 1α, 1β, 2, 6, and 10 (IL-1α, IL-1β, IL-2, IL-6, and IL-10), macrophage inhibitory factor (MIF), interferon gamma (IFN-γ), and transforming growth factor beta (TGF-β).

In another assay the test system is IFN-γ. Kind of assay: cytokine expression by RT-PCR in PHA-stimulated lymphocytes: IFN-γ. Conditions: PHA + 12.5 μM, healthy cats (no PHA) = 1. The method, then: as §1
The next assay has as its system IL-2. Kind of assay: cytokine expression by RT-PCR in PHA-stimulated lymphocytes: IL-2. The settings on record: PHA + 12.5 μM, healthy cats (no PHA) = 1. The method, then:
as §1

A further assay concerns IL-10. Kind of assay: cytokine expression by RT-PCR in PHA-stimulated lymphocytes: IL-10. The settings on record: PHA + 12.5 μM, healthy cats (no PHA) = 1. Here is the method: as §1
For the next assay, the system named is MIF. The assay can be described thus: cytokine expression by RT-PCR in PHA-stimulated lymphocytes: MIF. Conditions: PHA + 12.5 μM, healthy cats (no PHA) = 1. The method, then:
as §1

For a further assay, the system named is IL-1α. Kind of assay: cytokine expression by RT-PCR in PHA-stimulated lymphocytes: IL-1α. Conditions: PHA + 12.5 μM, healthy cats (no PHA) = 1. Here is the method: as §1
Assay [1] deals with lymphocytes obtained from the blood of healthy cats and cats with IBD. The assay can be described thus: in vitro lymphocyte proliferation assay (BrdU ELISA, PHA-stimulated). Conditions: 40 h. Here is the method:
The study utilizes eleven healthy cats and eleven cats with IBD, The cats with IBD are diagnosed by an intestinal biopsy, and have a history of chronic diarrhea. For six weeks, all cats are fed a nutritionally adequate dry food indicated for gastrointestinal distress. Blood is drawn from all cats at four, five, and six weeks. Samples with equal amounts of lymphocytes are used in an in vitro lymphocyte proliferation assay.
More specifically, 4.5 ml blood is mixed with 4.5 ml HBSS (Hank's Balanced Salt Solution)+25 mM HEPES. 4 ml of Ficoll-Paque Plus (Amersham) are slowly injected under the diluted blood. The mixture is centrifuged for twenty minutes at 500 g at 25° C. The upper layer is discarded. The lymphocytes are transferred into a clean tube, resuspended in 6 ml of HBSS+25 mM HEPES, and then centrifuged for ten minutes at 200 g at 25° C. The supernatant is discarded, and the lymphocytes are washed with 6 ml of HBSS. This centrifugation and wash step is repeated two more times. The washed lymphocytes are then resuspended in 5 ml of AIM medium (Invitrogen). Samples with 200,000 lymphocytes in 100 μl of AIM medium are used for the lymphocyte proliferation assay.
The lymphocyte proliferation assay is performed utilizing Amersham's Biotrak cell proliferation ELISA system, version 2. Lymphocyte samples are incubated in a 96-well plate with 7 μg/ml PHA (phytohemagglutinin) in the absence or presence of 12.5 μM and 25 μM DHA or EPA in a 37° C. incubator with 5% CO2 and 90% humidity for forty hours. After that, 20 μl of 100 μM BrdU is added, and the samples are incubated for two hours at 37° C. The plates are then removed from the incubator and centrifuged at 300 g for ten minutes at 25° C. The medium is removed by tapping and blotting, and the cells are dried in a chemical fume hood for at least fifteen minutes. 200 μl of fixative is added to every well and the plate is incubated for thirty minutes at room temperature. The cell fixative is removed by tapping and blotting. 200 μl of blocking buffer are added to every well, and the plate is incubated for thirty minutes at room temperature. The blocking buffer is removed by tapping and blotting, and 100 μl of anti-BrdU working solution is added to each well and incubated for ninety minutes at room temperature. The anti-BrdU solution is removed by tapping and blotting, and each well is rinsed three times with 300 μl washing solution. 100 μl 3.3′,5,5′-tetamethylbenzidine is added to each well and incubated for ten minutes or until color intensity is achieved. 25 μl 1M sulfuric acid is added to stop the reaction, and the plate is read on a fusion microplate reader (PerkinElmer) within five minutes.

For another assay, the system named is TGF-β. The assay can be described thus: cytokine expression by RT-PCR in PHA-stimulated lymphocytes: TGF-β. Conditions: PHA + 12.5 μM, healthy cats (no PHA) = 1. The method, then:
as §1

The next assay relates to IL-6. Kind of assay: cytokine expression by RT-PCR in PHA-stimulated lymphocytes: IL-6. Conditions: PHA + 12.5 μM, healthy cats (no PHA) = 1. Here is the method: as §1
[2] abbreviates: lymphocytes of cats with IBD, 7 μg/ml PHA + 12.5 μM fatty acid.
The mark [3] stands for this setting: lymphocytes of cats with IBD, 7 μg/ml PHA + 25 μM fatty acid.
Setting [4] is: lymphocytes of healthy cats, 7 μg/ml PHA + 12.5 μM fatty acid.
[5] abbreviates: lymphocytes of healthy cats, 7 μg/ml PHA + 25 μM fatty acid.

As for `CC/C=C\C/C=C\C/C=C\C/C=C\C/C=C\C/C=C\CCC(=O)O` [DHA, docosahexaenoic acid], the IL-1β expression was 1.85 in the assay with IL-1β (cats with IBD) and 0.87 in the assay with IL-1β (healthy cats). Further, the figures for the IFN-γ expression in the assay on IFN-γ (cats with IBD) and in the assay on IFN-γ (healthy cats) were 4.9 and 37.6, respectively. Also, the IL-2 expression in the assay with IL-2 (cats with IBD) was determined as 3; in the assay on IL-2 (healthy cats), 21.05. In addition, the IL-10 expression is recorded as 0.45 with IL-10 (cats with IBD) and 0.95 in the assay with IL-10 (healthy cats). Moreover, the MIF expression with MIF (cats with IBD) turned out to be 6.55; in the assay with MIF (healthy cats), 16.9. Moreover, the IL-1α expression was determined as 0.57 in the assay on IL-1α (cats with IBD) and 0.86 in the assay on IL-1α (healthy cats). Besides, the “Lymphocyte Proliferation” value turned out to be 0.49 ± 0.15 in assay [1] (setting [2]), 0.45 ± 0.18 in assay [1] (setting [3]), 0.28 ± 0.19 in assay [1] (setting [4]) and 0.25 ± 0.17 in assay [1] (setting [5]). Besides, the TGF-β expression is reported as 1.45 in the assay on TGF-β (cats with IBD) and 3.55 in the assay on TGF-β (healthy cats). Besides, the IL-6 expression with IL-6 (cats with IBD) was 13.9; in the assay with IL-6 (healthy cats), 5.75.
In the case of `CC/C=C\C/C=C\C/C=C\C/C=C\C/C=C\CCCC(=O)O` [EPA, eicosapentaenoic acid], the IL-1β expression in the assay with IL-1β (cats with IBD) is recorded as 1.34; in the assay with IL-1β (healthy cats) it was 1.17. In addition, the IFN-γ expression with IFN-γ (cats with IBD) is reported as 4.45; in the assay with IFN-γ (healthy cats), 130.9. Further, the figures for the IL-2 expression with IL-2 (cats with IBD) and in the assay with IL-2 (healthy cats) were 1.89 and 59.4, respectively. Moreover, the results for the IL-10 expression in the assay on IL-10 (cats with IBD) and in the assay on IL-10 (healthy cats) were 0.34 and 1.2, respectively. In addition, the MIF expression in the assay with MIF (cats with IBD) is listed as 4.45; with MIF (healthy cats), 14.05. Also, the IL-1α expression in the assay on IL-1α (cats with IBD) was 0.46; with IL-1α (healthy cats), 1.05. Further, the “Lymphocyte Proliferation” value in [1] (setting [2]) was 0.62 ± 0.27; in assay [1] (setting [3]), 0.63 ± 0.29; in assay [1] (setting [4]) it was 0.38 ± 0.23; in assay [1] (setting [5]), 0.37 ± 0.23. The TGF-β expression in the assay with TGF-β (cats with IBD) is recorded as 2.4; in the assay with TGF-β (healthy cats), 4.7. Moreover, the values for the IL-6 expression in the assay with IL-6 (cats with IBD) and in the assay with IL-6 (healthy cats) were 6.45 and 10.6, respectively.
